Series [1] can be described thus: logP determination by HPLC on reversed-phase column (C18), EEC Directive 79/831 Annex V.A8. The class given is physicochemical. Conditions: for logPa: C18, 40° C., 0.1% aqueous formic acid and acetonitrile; for log P (pH 2.3): pH 2.3, C18. As to the method:
Calibration was carried out using unbranched alkan-2-ones (comprising 3 to 16 carbon atoms) with known logP values (determination of the logP values by the retention times using linear interpolation between two successive alkanones).

In series [2] the test system is Heliothis viresens. Kind of series: Efficacy Example I: in vivo protective test on Heliothis viresens (HELIVI). Further details: species or system Heliotis virescens. Conditions: soybean leaf sections sprayed, infested with eggs of cotton bollworm; concentration and time not given. As to the method:
in vivo Protective Test on Heliothis viresens (HELIVI)
(§1) To produce a suitable preparation of active compound, 1 part by weight of active compound is mixed with the stated amount of solvent and emulsifier, and the concentrate is diluted with emulsifier-containing water to the desired concentration.
Soybean (Glycine max.) leaf sections are sprayed with a preparation of the active ingredient of the desired concentration. Once dry, the leaf sections are infested with eggs of cotton bollworm (Heliotis virescens).
After the specified period of time, mortality in % is determined. 100% means that all eggs have been killed and 0% means that none of the eggs have been killed.

Series [3] has as its system Myzus persicae. Kind of series: Efficacy Example H: in vivo protective test on Myzus persicae (MYZUPE). To be noted: Chinese cabbage leaf-disks infected with all instars of green peach aphid, sprayed; concentration and time not given. The method, then:
in vivo Protective Test on Myzus persicae (MYZUPE)
as §1
Chinese cabbage (Brassica pekinesis) leaf-disks infected with all instars of the green peach aphid (Myzus persicae), are sprayed with a preparation of the active ingredient at the desired concentration.
After the specified period of time, mortality in % is determined. 100% means that all aphids have been killed; 0% means that none of the aphids have been killed.

The source of these data is US8129558B2, “Pesticide naphthyloxy substituted phenylamidine derivatives” (Bayer Cropscience AG, priority 2005, dated 2012).

For the compound `CCCN(C)C=Nc1cc(C)c(Oc2ccc3cc(C(=NOC)c4ccccc4)ccc3c2)cc1C` [Compound 29], the logPa in series [1] was found to be 3.14. On to `CCN(C)C=Nc1cc(C)c(Oc2cccc3ccccc23)cc1C` [Compound 32], for which, in series [1], the logPa is 2.43.

Take `CCCN(C)C=Nc1cc(C)c(Oc2ccc3cc(C#N)ccc3c2)cc1C` [Compound 10]: the logPa in series [1] turned out to be 2.23. Moreover, the “activity (mortality in %)” value in series [2] is reported as “good activity”.

The compound `COc1ccc2ccc(Oc3cc(C)c(N=CN(C)C(C)C)cc3C)cc2c1` [Compound 16] came in with a logPa in series [1] of 2.56. On the same count and under the same terms, in the case of `CCN(C)C=Nc1cc(C)c(Oc2ccc3cc(Br)ccc3c2)cc1C` [Compound 8] it was 2.69; in that of `Cc1cc(Oc2ccc3ccccc3c2)c(C)cc1N=CN1CCN(C)CC1` [Compound 23], 1.64.

In series [1], `COc1ccc2cc(Oc3cc(C)c(N=CN(C)C(C)C)cc3C)ccc2c1` [Compound 30] returned a logPa of 2.70. In series [1], `CCN(C)C=Nc1cc(C)c(Oc2ccc3ccc(O)cc3c2)cc1C` [Compound 5] yielded a logPa of 1.92. For `CCN(C)C=Nc1cc(C)c(Oc2ccc3ccccc3c2)cc1C` [Compound 1, N-ethyl-N-methyl-N′-[4-(naphthyl-2-oxy)-2,5-xylyl]form-amidine], in series [1], the “log P (pH 2.3)” value was 2.38. `Cc1cc(Oc2ccc3ccccc3c2)c(C)cc1N=CN1CCCC1` [Compound 26] gave a logPa in series [1] of 2.33.

With `Cc1cc(Oc2ccc3cc(S(=O)(=O)NCCO)ccc3c2)c(C)cc1N=CN(C)C(C)C` [Compound 31], the logPa in series [1] amounted to 1.75. The same measure, in the same setting: next, `CCN(C)C=Nc1cc(C)c(Oc2ccc3cc(C(=O)c4ccccc4)ccc3c2)cc1C` [Compound 14]: 2.66; `Cc1cc(Oc2ccc3ccc(O)cc3c2)c(C)cc1N=CN(C)C(C)C` [Compound 6]: 2.02. The same measure, in the same setting: in the case of `CCN(C)C=Nc1cc(C)c(Oc2ccc3cc(C(O)c4ccccc4)ccc3c2)cc1C` (racemic) [Compound 19] it was 2.21. The compound `Cc1cc(Oc2ccc3ccccc3c2)c(C)cc1N=CN1CCNCC1` [Compound 22] had a logPa in series [1] of 1.55.

Take `CC(=O)O.CCN(C)C=Nc1cc(C)c(Oc2ccc3ccccc3c2)cc1C` [Compound 34]: in series [1], the logPa is 2.33. The same measure, in the same setting: next, `CCCN(C)C=Nc1cc(C)c(Oc2ccc3cc(C(=O)c4ccccc4)ccc3c2)cc1C` [Compound 15]: 2.77.

`Cc1cc(Oc2ccc3ccccc3c2)c(C)cc1N=CN1CCCCC1` [Compound 2, Piperidinyl-N-[4-(naphthyl-2-oxy)-2,5-xylyl]form-amidine]: the “log P (pH 2.3)” value in series [1] is recorded as 2.51. `CCCN(C)C=Nc1cc(C)c(Oc2ccc3cc(Br)ccc3c2)cc1C` [Compound 9] yielded a logPa in series [1] of 2.89. As for `CCN(C)C=Nc1cc(C)c(Oc2ccc3ccc(OC)cc3c2)cc1C` [Compound 17], in series [1], the logPa was 2.44. Also, in series [3], the “activity (mortality in %)” value is “good activity”. On to `Cc1cc(Oc2ccc3ccccc3c2)c(C)cc1N=CN(C)C(C)C` [Compound 4], for which, in series [1], the logPa is given as 2.52. Compound `CCCCNc1ccc2ccc(Oc3cc(C)c(N=CN(C)CCC)cc3C)cc2c1` [Compound 25] came in with a logPa in series [1] of 2.91. Same read-out and setting: in the case of `CCCCNc1ccc2ccc(Oc3cc(C)c(N=CN(C)CC)cc3C)cc2c1` [Compound 24] it was 2.62; in that of `CCN(C)C=Nc1cc(C)c(Oc2ccc3cc(C(=NOC)c4ccccc4)ccc3c2)cc1C` [Compound 28], 3.05; in that of `CCCCNc1ccc2ccc(Oc3cc(C)c(N=CN(C)C(C)C)cc3C)cc2c1` [Compound 20], 2.91. As for `CCN(C)C=Nc1cc(C)c(Oc2ccc3ccccc3c2)cc1C.O=C(O)C(=O)O` [Compound 35], the logPa in series [1] is 2.25.

In series [1], `CON=C(c1ccccc1)c1ccc2cc(Oc3cc(C)c(N=CN(C)C(C)C)cc3C)ccc2c1` [Compound 27] returned a logPa of 3.20. Same read-out and setting: in the case of `Cc1cc(Oc2ccc3cc(C#N)ccc3c2)c(C)cc1N=CN(C)C(C)C` [Compound 12] it was 2.20. Take `Cc1cc([N+](=O)[O-])c(C)cc1Oc1ccc2ccccc2c1` [4-(naphthyl-2-oxy)-2,5-dimethylnitrobenzene]: in series [1], the “log P (pH 2.3)” value is 5.04. In turn, `CCN(C)C=Nc1cc(C)c(Oc2ccc3ccccc3c2)cc1C.O=C(O)c1ccccc1` [Compound 36] yielded a logPa in series [1] of 2.44. In series [1], `Cc1cc(Oc2ccc3cc(C(=O)c4ccccc4)ccc3c2)c(C)cc1N=CN(C)C(C)C` [Compound 13] returned a logPa of 2.75. Moreover, the “activity (mortality in %)” value in series [2] is recorded as “good activity”.

In series [1], `Cc1cc(Oc2ccc3cc(Br)ccc3c2)c(C)cc1N=CN(C)C(C)C` [Compound 7] displayed a logPa of 2.92.

In turn, `Cc1cc(Oc2ccc3ccccc3c2)c(C)cc1N=CN1CCOCC1` [Compound 21] came in with a logPa in series [1] of 2.21. `CCCN(C)C=Nc1cc(C)c(Oc2ccc3ccc(OC)cc3c2)cc1C` [Compound 18]: the logPa in series [1] is given as 2.61. On the same count and under the same terms, in the case of `CCN(C)C=Nc1cc(C)c(Oc2ccc3cc(C#N)ccc3c2)cc1C` [Compound 11] it was 2.07.
